How the values were obtained:
MRSA ON184 [1] = assay: MIC, micro broth dilution; format: cell-based, Staphylococcus aureus; details: alone, 24 h
Protocol: (§1) An assay was made using a minimum inhibitory concentration (MIC) and minimum bactericidal concentration (MBC) and minimum fungicidal concentration (MFC) determination. The MIC was determined by the micro broth dilution method in 96-well plates. Serial two-fold dilutions of tetrasodium EDTA (from 2% to 0.015%), ethanol (from 50% to 0.1%) and chlorhexidine HCl (from 100 µg/mL to 0.025 µg/mL) were prepared in MH broth with a final volume of 90 µL per well. A 10 µL containing 1 × 10^5 bacterial cells or 2 × 10^3 fungal cells were added to each well. The inoculated plates were covered with a lid, sealed with Parafilm, and incubated for 24 h at 37° C. with slight rocking on a tilting platform shaker. After incubation, the optical density at 600 nm (OD 600 ) of the cultures in each well was measured using an xMark™ Microplate Absorbance Spectrophotometer (Bio-Rad). […] MBCs and MFCs were determined by transferring 100 µL from each well with no apparent growth onto appropriate agar plates, followed by incubation for 24 h at 37° C.

C. albicans ON47 [2] = assay: MIC, micro broth dilution; format: cell-based, Candida albicans; details: alone, 24 h
Protocol: as §1

C. albicans ON47 [3] = assay: Checkerboard titration, FICI; format: cell-based, Candida albicans
Protocol: (§2) A fourth composition and solution included tetrasodium EDTA with ethanol or chlorhexidine HCl. This fourth composition and solution were created using checkerboard titration methods using micro broth dilution in 96-well microtiter plates. The concentrations of antimicrobials used were based on previously determined MIC values. Briefly, 200 µL of two-fold dilutions of tetrasodium EDTA and ethanol or chlorhexidine HCl were prepared in MH or MH II broth with standardized cell suspension. […] Microtiter plates were incubated at 37° C. for 24 h, and the results were analyzed. Each test was performed in duplicate and included a growth control without adding any antimicrobials.

MRSA ON184 [4] = assay: Checkerboard titration, FMCI; format: cell-based, Staphylococcus aureus
Protocol: as §1, §2

C. albicans ON47 [5] = assay: Checkerboard titration, FMCI; format: cell-based, Candida albicans
Protocol: as §1, §2

[6] = system: Candida albicans SK4b biofilm; assay: MBEC Assay, 48-h biofilm, 24 h exposure; format: cell-based; details: C. albicans SK4b
Protocol: (§3) A biofilm cultivation cell composition was provided. This fifth composition was created using an MBEC Assay® biofilm inoculator, consisting of a polystyrene lid with 96 downward-protruding pegs and a corresponding base used to grow biofilms. A standardized inoculum was diluted in an appropriate biofilm growth medium to achieve a viable cell count of 1.5 × 10^6 CFU/mL of bacterial cells or […] CFU/mL of fungal cells. Then, 150 µL of this inoculum was transferred into each appropriate well, and the peg lids were inserted into the microtiter plates. The plates were sealed with Parafilm and were incubated at optimum temperature for 48 h with slight rocking for bacteria and shaking at 200 rpm for fungal strains. After incubation, the peg lid was removed from the base and rinsed twice with sterile phosphate-buffered saline (PBS) for 2 min to remove loosely attached non-sessile cells. Before the antimicrobial challenge, the pegs in column 1 (n = 8) were considered the biofilm growth control; these pegs were removed from the lids, placed into 200 µL of recovery medium, and analyzed for starting biofilm cell numbers as described below. The rinsed pegs were placed into new 96-well plates containing two-fold dilutions of antimicrobials such as tetrasodium EDTA (4 %-0.0125%), ethanol (100%-0.2%), and chlorhexidine HCl (100 µg/mL-0.4 µg/mL) in 200 µL of suitable biofilm growth medium per well and incubated at optimum temperature for 24 h. After the antimicrobial challenge, the pegs were rinsed twice with sterile PBS for 2 min and placed into a new 96-well plate containing 200 µL of recovery medium. The recovery plates were sealed with Parafilm, and biofilm cells were dislodged from the pegs by sonication for 30 min with a Branson 3510 bath sonicator. The biofilm cells in the recovery medium were serially diluted, and a drop dilution assay was performed to enumerate the viable cells. MBEC values were determined as the minimum concentration of antimicrobials that yielded a viable cell count at or lower than the 125 CFU/mL detection limit.

[7] = system: Escherichia coli SK2 biofilm; assay: MBEC Assay, 48-h biofilm, 24 h exposure; format: cell-based; details: E. coli SK2
Protocol: as §3

[8] = system: Proteus mirabilis ON153 biofilm; assay: MBEC Assay, 48-h biofilm, 24 h exposure; format: cell-based; details: P. mirabilis ON153
Protocol: as §3

[9] = system: Pseudomonas aeruginosa SK1 biofilm; assay: MBEC Assay, 48-h biofilm, 24 h exposure; format: cell-based; details: P. aeruginosa SK1
Protocol: as §3

[10] = system: Staphylococcus aureus ON89 biofilm; assay: MBEC Assay, 48-h biofilm, 24 h exposure; format: cell-based; details: S. aureus ON89
Protocol: as §3

[11] = system: Staphylococcus epidermidis SK9 biofilm; assay: MBEC Assay, 48-h biofilm, 24 h exposure; format: cell-based; details: S. epidermidis SK9
Protocol: as §3

[12] = system: Staphylococcus aureus ON89 biofilm; assay: FBEC index, checkerboard dilution on biofilms; format: cell-based; details: S. aureus ON89 biofilm
Protocol: (§4) In step (4), microtiter plates are incubated at 37° C. for 24 h. then (6), after incubation, the bacterial and fungal cells were dislodged from the pegs into the recovery medium described above.
(§5) Three 10-µL aliquots, for a total of 30 µL from each well of recovery medium, were spotted on MH agar plates and incubated for 24 h at 37° C. […] The FBEC determination is a modification of the FICI.

[13] = system: Proteus mirabilis ON153 biofilm; assay: FBEC index, checkerboard dilution on biofilms; format: cell-based; details: P. mirabilis ON153 biofilm
Protocol: as §4, §5

[14] = system: Escherichia coli SK2 biofilm; assay: FBEC index, checkerboard dilution on biofilms; format: cell-based; details: E. coli SK2 biofilm
Protocol: as §4, §5

[15] = system: 48-h old biofilms of test organisms; assay: Rapid biofilm eradication, 2 h exposure; format: cell-based; details: alone at the MBEC
Protocol: Determining rapid biofilm eradication by tetrasodium EDTA, ethanol, and chlorhexidine HCl alone and in combination was performed. After biofilm formation, control pegs (n = 6) were removed and analyzed to determine the starting biofilm cell numbers via the drop dilution method. The 48-h old biofilms on the pegs were exposed to different concentrations of test antimicrobials, dissolved in an appropriate growth medium, for two h to evaluate their efficacy alone and in combination. Antimicrobial solutions tested against each organism included each agent alone at the MBEC, double combinations at the FBEC, and triple combinations ranging from 5 to 20% ethanol, 2.5-5 µg/mL chlorhexidine HCl and 1- 3% tetrasodium EDTA. Following treatment, pegs were washed twice with sterile PBS, and the biofilm cells were dislodged into recovery medium and enumerated as described above.
The method for rapid biofilm eradication ability of test antimicrobials alone and in combination against 48-h-old biofilms within two h exposure time included (1) choosing different concentrations of test antimicrobials to assess their potency in eradicating preformed biofilms of study organisms within two h. Then (2) the quantitative recovery from biofilms following exposure to the antimicrobial solutions for bacterial strains (FIGS. 6A-6C) and fungal strains (FIG. 7) was evaluated.

[16] = tetrasodium EDTA + chlorhexidine HCl

In the case of `O=C([O-])CN(CCN(CC(=O)[O-])CC(=O)[O-])CC(=O)[O-].[Na+].[Na+].[Na+].[Na+]` [EDTA, tetrasodium EDTA], the MIC (MRSA ON184 [1]) is reported as 0.063 % w/v, the MIC (C. albicans ON47 [2]) is reported as 1 % w/v and the “Concentration in combination giving FICI” value (C. albicans ON47 [3]; [16]) is reported as 0.125 % w/v. The “Concentration in combination giving FICI” value (C. albicans ON47 [3]; tetrasodium EDTA + ethanol) was 0.25 % w/v, the “Concentration in combination giving FMCI” value (MRSA ON184 [4]; [16]) was 0.125 % w/v and the “Concentration in combination giving FMCI” value (MRSA ON184 [4]; tetrasodium EDTA + ethanol) was 0.031 % w/v. For the same molecule, the “Concentration in combination giving FMCI” value (C. albicans ON47 [5]; [16]) was 0.031 % w/v, the “Concentration in combination giving FMCI” value (C. albicans ON47 [5]; tetrasodium EDTA + ethanol) was 0.25 % w/v and the MBEC [6] was 1 % w/v. For the same molecule, the MBEC [7] was 2 % w/v, the MBEC [8] was 4 % w/v and the MBEC [9] was 4 % w/v. For the same molecule, the MBEC [10] was 4 % w/v, the MBEC [11] was 2 % w/v and the “FBEC (concentration in combination)” value [12, 16] was 0.125 % w/v. For the same molecule, the “FBEC (concentration in combination)” value ([12]; tetrasodium EDTA + ethanol) was 0.063 % w/v, the “FBEC (concentration in combination)” value [13, 16] was 0.125 % w/v and the “FBEC (concentration in combination)” value ([13]; tetrasodium EDTA + ethanol) was 0.125 % w/v. The “FBEC (concentration in combination)” value [14, 16] was 0.031 % w/v, the “FBEC (concentration in combination)” value ([14]; tetrasodium EDTA + ethanol) was 0.125 % w/v and the “Eradication of preformed biofilms” value [15] was “failed to eradicate”.

Reference: US20230264009A1, “DISINFECTING CAP KIT FOR LUER ACCESS DEVICES” (SterileCare Inc., priority 2022, published 2023)
